Reference: the Deep4Chem optical property database

Assay: solvent given as SMILES

In the case of `CC1CC=C(c2ccc(-c3ccc(C#N)s3)s2)CC1` (stereo unspecified), the emission maximum (in C1CCOC1) was 443 nm, the emission maximum (in CC#N) was 448 nm and the emission maximum (in CCCCCC) was 427 nm. It also gave an emission maximum (in CCO) of 443 nm, an emission maximum (in OCCOCCO) of 451 nm and an emission maximum (in c1ccncc1) of 452 nm.
`N#Cc1c(/C=C/c2ccc(N(c3ccccc3)c3ccccc3)cc2)cc(-c2ccccc2)cc1N1CCCCC1` showed an emission maximum (in CS(C)=O) of 520 nm.
With `CN(C)c1ccc(C#Cc2ccc(-c3nc(C#N)c(C#N)n3C)cc2)cc1` the emission maximum (in C1CCCCC1) was 406 nm, the emission maximum (in CC#N) was 514 nm and the emission maximum (in CO) was 489 nm. It also gave an emission maximum (in ClC(Cl)Cl) of 479 nm.
For `CC(C)(C)c1ccc2c(c1)c1cc(C(C)(C)C)ccc1n2-c1ccc(S(=O)(=O)c2ccc(-n3c4ccc(C(C)(C)C)cc4c4cc(C(C)(C)C)ccc43)nc2)cn1`, the emission maximum (in Cc1ccccc1) was 444.37 nm and the emission maximum (in O=P(c1ccccc1)(c1ccccc1)c1ccc2sc3cccc(P(=O)(c4ccccc4)c4ccccc4)c3c2c1) was 467 nm.
Compound `CCCCN1C(=O)c2cccc3cccc(c23)C1=O` has an emission maximum (in Cc1ccccc1) of 392 nm.
Compound `COc1cc(/C=C/c2nc3ccccc3s2)c(OC)cc1/C=C/c1nc(C)nc(/C=C/c2cc(OC)c(/C=C/c3nc4ccccc4s3)cc2OC)n1` has an emission maximum (in C1CCOC1) of 490 nm, an emission maximum (in CC#N) of 505 nm and an emission maximum (in ClC(Cl)Cl) of 500 nm. It also gave an emission maximum (in ClCCl) of 502 nm.
`CCN(CC)c1ccc(/C=N/C(C#N)=C(C#N)/N=C/c2ccc(N(CC)CC)cc2O)c(O)c1` gave an emission maximum (in CC#N) of 609 nm, an emission maximum (in CN(C)C=O) of 618 nm and an emission maximum (in ClCCl) of 612 nm.
`CCCCCCCCCCCCOc1cc(C(=O)Nc2ccc(-c3ccc4c(c3)C(=O)c3cc(-c5ccc(NC(=O)c6cc(OCCCCCCCCCCCC)c(OCCCCCCCCCCCC)c(OCCCCCCCCCCCC)c6)cc5)ccc3-4)cc2)cc(OCCCCCCCCCCCC)c1OCCCCCCCCCCCC` gave an emission maximum (in C1CCOC1) of 542 nm.
`CCCCCCCCN1c2ccc(C#Cc3cc(C(F)(F)F)cc(C(F)(F)F)c3)cc2Sc2cc(C=O)ccc21` showed an emission maximum (in C1CCOC1) of 514 nm, an emission maximum (in CC#N) of 532 nm and an emission maximum (in CCCCCC) of 491 nm. For the same compound, the emission maximum (in CO) was 517 nm, the emission maximum (in CS(C)=O) was 540 nm and the emission maximum (in Cc1ccccc1) was 508 nm. It also gave an emission maximum (in ClC(Cl)Cl) of 529 nm.
Work on `CCN(CC)c1ccc(/N=N/c2nc3ccc(OC)cc3s2)cc1` yielded an emission maximum (in CC#N) of 583 nm and an emission maximum (in ClCCl) of 574 nm.
Work on `CNCCCC1c2ccccc2C=Cc2ccccc21` yielded an emission maximum (in CC#N) of 358 nm, an emission maximum (in CO) of 358 nm and an emission maximum (in O) of 360 nm.
Work on `COc1ccc(/C=C/c2nc(/C=C/c3ccc(N(c4ccccc4)c4ccccc4)cc3)cc(/C=C/c3ccc(N(c4ccccc4)c4ccccc4)cc3)n2)cc1` yielded an emission maximum (in C1CCOC1) of 515 nm, an emission maximum (in CC#N) of 583 nm and an emission maximum (in CC(C)=O) of 555 nm. The emission maximum (in CCCCCCC) was 461 nm, the emission maximum (in CS(C)=O) was 584 nm and the emission maximum (in Cc1ccccc1) was 480 nm. It also gave an emission maximum (in ClCCl) of 543 nm.
With `CO[Si](c1c2ccccc2cc2ccccc12)(c1c2ccccc2cc2ccccc12)c1c2ccccc2cc2ccccc12` the emission maximum (in ClC(Cl)Cl) was 439 nm.
In the case of `CC(C)[Si](C#Cc1cc2c3c(c1)c(=C1c4ccccc4Sc4ccccc41)c1cc(C#C[Si](C(C)C)(C(C)C)C(C)C)cc4c1N3c1c(cc(C#C[Si](C(C)C)(C(C)C)C(C)C)cc1c4=C1c3ccccc3Sc3ccccc31)c2=C1c2ccccc2Sc2ccccc21)(C(C)C)C(C)C`, the emission maximum (in ClCCl) was 511 nm.
In the case of `N#Cc1c(N2CCCCC2)cc(-c2cccs2)c2c1-c1cccc3cccc-2c13`, the emission maximum (in O) was 555 nm.
Work on `CCCC1=Cc2nc1ccc1[nH]c(cc1CCC)c1nc(c(OCc3ccc(C(=O)O)cc3)cc3[nH]c2cc3CCC)C(CCC)=C1` yielded an emission maximum (in Cc1ccccc1) of 685 nm.
With `C1=Cc2ccccc2Cc2ccccc21` the emission maximum (in CC#N) was 383 nm and the emission maximum (in CO) was 380 nm.
`COc1ccc(-c2nc3c(c4c2-c2ccccc2CC4)-c2ccccc2CC3)cc1` gave an emission maximum (in C1CCOC1) of 420 nm, an emission maximum (in CC#N) of 416 nm and an emission maximum (in CCCCCC) of 408 nm. It also gave an emission maximum (in CCOC(C)=O) of 425 nm, an emission maximum (in CO) of 428 nm and an emission maximum (in CS(C)=O) of 415 nm. For the same compound, the emission maximum (in Cc1ccccc1) was 419 nm and the emission maximum (in ClCCl) was 424 nm.
Work on `C[n+]1ccnc(/C=C/c2ccc(N(c3ccccc3)c3ccc(/C=C/c4c[n+](C)ccn4)cc3)cc2)c1` yielded an emission maximum (in CS(C)=O) of 530 nm and an emission maximum (in OCC(O)CO) of 690 nm.
`CCN(CC)c1ccc2cc(C#N)/c(=N\C(=O)c3ccc(F)cc3)oc2c1` gave an emission maximum (in CCO) of 533 nm and an emission maximum (in ClCCl) of 507 nm.
Work on `CN(C)CCN(Cc1c2ccccc2c(CN(CCN(C)C)c2ccc([N+](=O)[O-])cc2[N+](=O)[O-])c2ccccc12)c1ccc([N+](=O)[O-])cc1[N+](=O)[O-]` yielded an emission maximum (in C1CCCCC1) of 416 nm, an emission maximum (in C1CCOC1) of 419 nm and an emission maximum (in CC#N) of 389 nm. The emission maximum (in CC(C)=O) was 387 nm, the emission maximum (in CCO) was 388 nm and the emission maximum (in CN(C)C=O) was 424 nm. The emission maximum (in CO) was 389 nm and the emission maximum (in ClC(Cl)Cl) was 417 nm.
For `CCN1c2ccc(C3=CC(c4ccccc4)=[O+][B-](F)(F)O3)cc2Sc2cc(C3=CC(c4ccccc4)=[O+][B-](F)(F)O3)ccc21`, the emission maximum (in ClCCl) was 639 nm.
In the case of `F[B-]1(F)n2c(ccc2-c2cccs2)C(C(F)(F)F)=C2C=CC(c3cccs3)=[N+]21`, the emission maximum (in CCCCCC) was 674 nm.
For `COc1ccc(C2=C(c3ccc(OC)cc3)C(c3ccc(OC)cc3)=[N+]3C2=C(c2ccc(OC)cc2)c2c(-c4ccc(OC)cc4)c(-c4ccc(OC)cc4)c(-c4ccc(OC)cc4)n2[B-]3(F)F)cc1`, the emission maximum (in C1CCOC1) was 640 nm.
Compound `CC(=O)OC[C@H]1O[C@@H](OCC#Cc2ccc(C3=C4C(C)=CC(/C=C/c5ccc(N(C)C)cc5)=[N+]4[B-](F)(F)n4c(/C=C/c5ccc(N(C)C)cc5)cc(C)c43)cc2)[C@H](OC(C)=O)C(OC(C)=O)[C@@H]1OC(C)=O` (stereo partly specified) has an emission maximum (in CC#N) of 769 nm.
`COc1ccc(O)c(-c2[nH]c(=O)n3c2-c2ccccc2C3=O)c1` showed an emission maximum (in CC#N) of 480 nm, an emission maximum (in CO) of 500 nm and an emission maximum (in ClCCl) of 481 nm.
With `Cc1c(-c2ccc(N3c4ccccc4C(C)(C)c4ccccc43)cc2)ncnc1-c1ccc(N2c3ccccc3C(C)(C)c3ccccc32)cc1` the emission maximum (in Cc1ccccc1) was 477 nm and the emission maximum (in O=P(c1ccccc1)(c1ccccc1)c1ccccc1Oc1ccccc1P(=O)(c1ccccc1)c1ccccc1) was 481 nm.
Compound `CN1C(=O)/C(=C/c2ccncc2)N=C1/C=C/c1ccncc1` has an emission maximum (in C1COCCO1) of 537 nm, an emission maximum (in CC#N) of 541 nm and an emission maximum (in CCO) of 545 nm. For the same compound, the emission maximum (in CCOC(C)=O) was 535 nm and the emission maximum (in O) was 542 nm.
With `COc1ccc(C2=C3C(/C=C/c4cc(OC)c(OC)c(OC)c4)=C(C=O)C(/C=C/c4cc(OC)c(OC)c(OC)c4)=[N+]3[B-](F)(F)n3c(/C=C/c4cc(OC)c(OC)c(OC)c4)c(C=O)c(C=Cc4cc(OC)c(OC)c(OC)c4)c32)cc1` the emission maximum (in ClCCl) was 722 nm.
Compound `CCC(C)(C)c1ccc(-c2ccc3c(c2)C(CCOC)(CCOC)c2cc4c(cc2-3)C(CCOC)(CCOC)c2cc(-c3ccc(C(C)(C)CC)cc3)ccc2-4)cc1` has an emission maximum (in C1CCCCC1) of 390 nm.
For `C#CCNC1=C2C=C(c3cc4n(c3)[B-](F)(F)[N+]3=CC=CC3=C4c3c(C)cc(C)cc3C)C(C)=[N+]2[B-](F)(F)n2c(C)ccc21`, the emission maximum (in C1CCCCC1) was 633 nm and the emission maximum (in CCOC(C)=O) was 690 nm.
In the case of `C(=C(c1ccccc1)c1ccccc1)c1ccc(-c2cc(-c3ccc(C=C(c4ccccc4)c4ccccc4)cc3)cc(-c3ccc(C=C(c4ccccc4)c4ccccc4)cc3)c2)cc1`, the emission maximum (in C1CCOC1) was 446 nm.
Compound `Cc1ccc(C2=[N+]3C(=Nc4c5ccccc5c(-c5ccc(C)s5)n4[B-]3(F)F)c3ccccc32)s1` has an emission maximum (in ClCCl) of 841 nm.
For `N#C/C(=C\c1ccc(C=C(c2ccccc2)c2ccccc2)cc1)c1ccc([N+](=O)[O-])cc1`, the emission maximum (in C1CCOC1) was 552 nm.
Compound `COc1ccc2c3c(cccc13)C(=O)N(C)C2=O` has an emission maximum (in C1CCCCC1) of 404 nm, an emission maximum (in C1CCOC1) of 430 nm and an emission maximum (in CC#N) of 434 nm. For the same compound, the emission maximum (in CC(C)CC(C)(C)C) was 402 nm, the emission maximum (in CCCCCCCCCCCC) was 402 nm and the emission maximum (in CCO) was 444 nm. The emission maximum (in CN(C)C=O) was 444 nm, the emission maximum (in CO) was 450 nm and the emission maximum (in CS(C)=O) was 452 nm. For the same compound, the emission maximum (in ClC(Cl)(Cl)Cl) was 412 nm and the emission maximum (in O) was 462 nm.
Compound `O=S1(=O)c2ccccc2-c2cc(-c3c4ccccc4cc4ccccc34)ccc21` has an emission maximum (in C1CCCCC1) of 403.35 nm, an emission maximum (in CC#N) of 514.77 nm and an emission maximum (in ClCCl) of 472.82 nm.
`Cc1ccc(N2C(c3ccccc3[NH-])=[NH+]C(c3ccccc3)C2c2ccccc2)cc1` (stereo unspecified) gave an emission maximum (in Cc1ccccc1) of 572 nm.
With `Cc1cc(C)c(C2=C3C=CC=[N+]3[B-]3(c4ccccc4)Oc4cc(O)cc5c6ccc(C)cc6c6cc2n3c6c45)c(C)c1` (stereo unspecified) the emission maximum (in ClC(Cl)Cl) was 669 nm.
Compound `O=S(=O)(c1ccc(-c2ccc(-c3nc4c5ccccc5c5ccccc5c4n3-c3ccccc3)cc2)cc1)c1ccc(-c2ccc(-c3nc4c5ccccc5c5ccccc5c4n3-c3ccccc3)cc2)cc1` has an emission maximum (in C1CCOC1) of 451 nm, an emission maximum (in CC#N) of 479 nm and an emission maximum (in CC(C)=O) of 468 nm. For the same compound, the emission maximum (in CC(C)OC(C)C) was 437 nm, the emission maximum (in CCCCCC) was 404 nm and the emission maximum (in CCCCOCCCC) was 420 nm. For the same compound, the emission maximum (in CCN(CC)CC) was 413 nm, the emission maximum (in CCOC(C)=O) was 448 nm and the emission maximum (in CCOCC) was 438 nm. The emission maximum (in CN(C)C=O) was 478 nm, the emission maximum (in ClC(Cl)Cl) was 450 nm and the emission maximum (in ClCCl) was 461 nm. It also gave an emission maximum (in c1ccc2c(c1)c1ccccc1n2-c1ccc(-c2ccc(-n3c4ccccc4c4ccccc43)cc2)cc1) of 443 nm.
In the case of `c1ccc(C2=C(c3ccccc3)c3cccc4c3c(cc3nc5c(-c6ccccc6)ccc(-c6ccccc6)c5nc34)O2)cc1`, the emission maximum (in ClCCl) was 551 nm.
In the case of `CCCCc1cc2cccc3cc(CCCC)c4cc(-c5cc6[b-]7c(c5)c(CCCC)cc5cccc(cc6CCCC)[n+]75)cc1[b-]4[n+]23`, the emission maximum (in C1CCCCC1) was 550 nm.
In the case of `C(/C=C/C1=[NH+]c2cccc3cccc1c23)=c1/[nH]c2cccc3cccc1c32`, the emission maximum (in CO) was 651 nm.
In the case of `COC(=O)c1[nH]c(-c2ccccc2)c2nnc3c4ccccc4oc3c12`, the emission maximum (in ClCCl) was 473 nm.
